From PMC4577729, “7-(Pyrazol-4-yl)-3H-imidazo[4,5-b]pyridine-based derivatives for kinase inhibition: Co-crystallisation studies with Aurora-A reveal distinct differences in the orientation of the pyrazole N1-substituent” (Bioorganic & Medicinal Chemistry Letters, 2015)
“And” between values parts separate entries of the source, which are not always exact repeats. Equal entries are not always repeated.

How the values were obtained:
[1] = target: T1, Aurora A (Homo sapiens, UniProt O14965); assay: Aurora-A microfluidic kinase assay; format: biochemical; settings: for IC50: biochemical, mean of two determinations or mean ±SD for n > 2; for fold more potent on Aurora-A relative to Aurora-B: ratio of biochemical IC50s
T1 sequence (O14965 1-403): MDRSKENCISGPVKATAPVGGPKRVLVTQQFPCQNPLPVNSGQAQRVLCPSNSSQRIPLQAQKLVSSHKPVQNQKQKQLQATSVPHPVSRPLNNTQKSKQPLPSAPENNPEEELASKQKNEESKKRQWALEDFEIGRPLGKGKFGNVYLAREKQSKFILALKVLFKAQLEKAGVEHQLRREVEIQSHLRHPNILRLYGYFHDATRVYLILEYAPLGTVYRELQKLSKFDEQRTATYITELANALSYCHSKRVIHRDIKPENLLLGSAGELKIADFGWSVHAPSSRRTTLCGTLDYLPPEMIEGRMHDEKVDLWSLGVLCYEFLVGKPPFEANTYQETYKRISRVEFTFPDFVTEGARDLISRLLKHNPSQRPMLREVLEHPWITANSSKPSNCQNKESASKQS
Excerpt: (§1) As part of our medicinal chemistry programme to discover selective inhibitors of Aurora-A,[12] we introduced the 1-benzyl-1H-pyrazol-4-yl moiety at C7 of the imidazo[4,5-b]pyridine scaffold to provide 7a (Table 1). We previously reported 1,3-dimethyl-1H-pyrazol-4-yl as a preferred substituent at the C2 position of the imidazo[4,5-b]pyridine scaffold[11] and this moiety was therefore incorporated into the design of 7a and analogues presented in this study. […] This in vitro profile prompted us to investigate this C7-pyrazole substituted imidazo[4,5-b]pyridine subseries in more detail. Firstly, we attempted to increase biochemical potency against Aurora-A, and also to improve microsomal stability.
(§2) [17] Aurora-A and Aurora-B IC50 values were determined by using a microfluidic assay which monitors the separation of a phosphorylated product from its substrate, as described in Ref. [12].

[2] = target: Aurora B (Homo sapiens, UniProt Q96GD4); assay: Aurora-B microfluidic kinase assay; settings: biochemical; mean of two determinations or mean ±SD for n > 2
Excerpt: as §1, §2

[3] = Mouse liver microsomal stability; format: in vitro ADME; settings: percentage of compound metabolised after a 30 min incubation, mouse liver microsomes
Method: (§3) [18] MLM and HLM microsomal stabilities were determined as described in Ref. [12].

[4] = Human liver microsomal stability; format: in vitro ADME; settings: percentage of compound metabolised after a 30 min incubation, human liver microsomes
Method: as §3

[5] = Protein binding in microsomal incubations (MLM); format: in vitro ADME, mouse
Method: (§4) For a better understanding of the microsomal stability data, the protein binding for 7a, 7d and 7e in microsomal incubations was measured. The percentage of 7a unbound in MLM and HLM was determined as 6.71 and 4.89, respectively. Compounds 7d and 7e were more highly bound: for 7d the percentage unbound was 0.50 in both MLM and HLM and for 7e was 0.16 and 0.10, respectively. […] The potent cell-based activity prompted us to investigate kinome selectivity profiles for this class of compound by screening 7a and 7d in a 102-kinase panel at a concentration of 1 μM.[20] […] The Gini coefficient for compound 3 was reported as 0.719,[12] and the corresponding value for compound 1 is 0.560. To understand the potential for further improvement, we obtained the crystal structure of 7a bound to Aurora-A[22] (Fig. 3, Table S3, Supplementary data). […] Similar to crystal structures of previous compounds 1, 15 and 16 (Figs. 1 and 2; compounds 51 and 40c in Ref. [10], and compound 21a in Ref. [11], respectively) the N-benzyl substituent on the C7-pyrazole is oriented towards the P-loop, making Van der Waals contacts with Val147 and Gly142 (Fig. 3).

[6] = Protein binding in microsomal incubations (HLM); format: in vitro ADME, human
Method: as §4

Sequence of Aurora B (Q96GD4 whole entry): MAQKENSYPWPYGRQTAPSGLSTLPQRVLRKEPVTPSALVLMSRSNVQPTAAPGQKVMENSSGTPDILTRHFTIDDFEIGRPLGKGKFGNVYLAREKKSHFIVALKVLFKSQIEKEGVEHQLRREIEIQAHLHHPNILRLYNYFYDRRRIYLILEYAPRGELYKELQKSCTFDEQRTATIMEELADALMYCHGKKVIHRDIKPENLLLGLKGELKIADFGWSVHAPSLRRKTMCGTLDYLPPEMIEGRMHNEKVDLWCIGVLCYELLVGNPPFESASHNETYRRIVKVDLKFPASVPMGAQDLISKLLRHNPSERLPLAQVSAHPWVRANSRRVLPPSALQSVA

| Compound | IC50 [1] | IC50 [2] | MLM % met/30 min [3] | HLM % met/30 min [4] | percentage unbound in MLM [5] | percentage unbound in HLM [6] | fold more potent on Aurora-A relative to Aurora-B [1] |
| --- | --- | --- | --- | --- | --- | --- | --- |
| Cc1nn(C)cc1-c1nc2c(-c3cnn(-c4ccc(F)cc4)c3)c(Cl)cnc2[nH]1 [Compound 7e] | > 10000 nM | > 10000 nM | 31% | 20% | 0.16% | 0.10% | – |
| Cc1nn(C)cc1-c1nc2c(-c3cnn(Cc4cccc(C(=O)N(C)C)c4)c3)c(Cl)cnc2[nH]1 [Compound 14a] | 36 nM | 296 nM | 72/72% | 72% and 72/72% | – | – | 8 fold |
| Cc1nn(C)cc1-c1nc2c(-c3cnn(Cc4cccc(C(=O)N5CCN(C)CC5)c4)c3)c(Cl)cnc2[nH]1 [Compound 14b] | 46 nM | 235 nM | 97% | 87% | – | – | 5 fold |
| Cc1nn(C)cc1-c1nc2c(-c3cnn(Cc4ccccc4C(=O)N4CCN(C)CC4)c3)c(Cl)cnc2[nH]1 [Compound 14c] | 126 nM | 354 nM | 98% | 82% | – | – | – |
